Results published in patent US20040063668A1, “Novel acyclic nucleoside phosphonate derivatives, salts thereof and process for the preparation of the same” (priority 2001, published 2004).
Where two headings read alike, the source gives them in different places.

Experiments:
[1] = Determination of cytotoxicity (MTT) in HepG2.2.15 cells; details: human
Hepatitis B Virus (HBV) = assay: Inhibition of hepatitis B virus replication in HepG2.2.15 cell culture, quantitative PCR; type: cell-based; details: read-out: EC50(μM) in HBV
HBV = type: in vivo, HBV transgenic mice (FVB strain); details: effect = blood does not contain HBV DNA
HepG2.2.15 = assay: Determination of cytotoxicity (MTT) in HepG2.2.15 cells; details: read-out: CC50(μM) in HepG2.2.15; MTT, 10th day from treatment with drug
[2] = Hepatitis B virus, 240 h, HepG2.2.15 culture medium, 10 days after treatment with drug, PCR of HBV DNA
[3] = subcutaneous, 10 mg/kg/day for 9 days

| Structure (SMILES) | CC50 at 10 days [1] | EC50 (Hepatitis B Virus (HBV); [2]) | other results |
| --- | --- | --- | --- |
| Nc1ncnc2c1ncn2CC1(OCP(=O)(O)O)CC1 [Compound 1, ({1-[(6-amino-9H-purin-9-yl)methyl]cyclopropyl}oxy)methylphosphonic acid] | > 1000 µM | > 1 µM | – |
| CC(C)(C)C(=O)OCOP(=O)(COC1(Cn2cnc3c(N)ncnc32)CC1)OCOC(=O)C(C)(C)C [Compound 2, 3-[({1-[(6-amino-9H-purin-9-yl)methyl]cyclopropyl}oxy)methyl]-8,8-dimethyl-3,7-dioxo-2,46-trioxa-3 ^5-phosphanon-1-yl pivalate] | > 1000 µM | > 0.1 µM | – |
| Nc1nc(Cl)c2ncn(CC3(OCP(=O)(O)O)CC3)c2n1 [Compound 3, ({1-[(2-amino-6-chloro-9H-purin-9-yl)methyl]cyclopropyl}oxy)methylphosphonic acid] | > 1000 µM | > 0.5 µM | – |
| Nc1nc(O)c2ncn(CC3(OCP(=O)(O)O)CC3)c2n1 [Compound 5, ({1-[(2-amino-6-hydroxy-9H-purin-9-yl)methyl]cyclopropyl}oxy)methyl phosphonic acid] | > 1000 µM | > 0.1 µM | – |
| Nc1ncc2ncn(CC3(OCP(=O)(O)O)CC3)c2n1 [Compound 9, ({1-[(2-amino-9H-purin-9-yl)methyl]cyclopropyl}oxy)methylphosphonic acid] | > 1000 µM | > 0.3 µM | – |
| CC(C)(C)C(=O)OCOP(=O)(COC1(Cn2cnc3cnc(N)nc32)CC1)OCOC(=O)C(C)(C)C [Compound 10, 3-[({1-[(2-amino-9H-purin-9-yl)methyl]cyclopropyl}oxy)methyl]-8,8-dimethyl-3,7-dioxo-2,4,6-trioxa-3 ^5-phosphanon-1-yl pivalate] | > 1000 µM | – | Result: number of mice showing pharmacological effect/number of total mice (HBV; oral, 0.4 mg/kg/day for 9 days): 5/6; Result: number of mice showing pharmacological effect/number of total mice (HBV; oral, 2 mg/kg/day for 9 days): 4/4; EC50 (Hepatitis B Virus (HBV); Hepatitis B virus, HepG2.2.15, 240 h): > 0.08 µM |
| Nc1nc(NC2CC2)c2ncn(CC3(OCP(=O)(O)O)CC3)c2n1 [Compound 11, ({1-[(2-amino-6-cyclopropylamino-9H-purin-9-yl)methyl]cyclopropyl}oxy)meth-ylplhosplhonic acid] | > 1000 µM | > 20 µM | – |
| CCNc1nc(N)nc2c1ncn2CC1(OCP(=O)(O)O)CC1 [Compound 13, ({1-[(2-amino-6-ethylamino-9H-purin-9-yl)methyl]cyclopropyl}oxy)methylphosphonic Acid] | > 1000 µM | > 1 µM | – |
| CN(C)c1nc(N)nc2c1ncn2CC1(OCP(=O)(O)O)CC1 [Compound 15, [(1-{[2-amino-6-(dimethylamino)-9H-purin-9-yl]methyl}cyclopropyl)oxy]methyl phosphonic acid] | > 1000 µM | > 0.8 µM | – |
| CC(C)Nc1nc(N)nc2c1ncn2CC1(OCP(=O)(O)O)CC1 [Compound 17, [(1-{[2-amino-6-(isopropylamino)-9H-purin-9-yl]methyl}cyclopropyl)oxy]methyl phosphonic acid] | > 1000 µM | > 0.5 µM | – |
| Nc1nc(N)c2ncn(CC3(OCP(=O)(O)O)CC3)c2n1 [Compound 19, ({1-[(2,6-diamino-9H-purin-9-yl)methyl]cyclopropyl}oxy)methylphosphonic acid] | > 1000 µM | > 0.3 µM | – |
| CCOc1nc(N)nc2c1ncn2CC1(OCP(=O)(O)O)CC1 [Compound 23, ({1-[(2-amino-6-ethoxy-9H-purin-9-yl)methyl]cyclopropyl}oxy)methyl phosphonic acid] | > 1000 µM | > 0.1 µM | Result: number of mice showing pharmacological effect/number of total mice (HBV; [3]): 4/4 |
| Cc1nc(N)nc2c1ncn2CC1(OCP(=O)(O)O)CC1 [Compound 25, ({1-[(2-amino-6-methyl-9H-purin-9-yl)methyl]cyclopropyl}oxy)methyl phosphonic acid] | > 1000 µM | > 5 µM | – |
| Cc1cn(CC2(OCP(=O)(O)O)CC2)c(=O)[nH]c1=O [Compound 31, [(1-{[5-methyl-2,4-dioxo-3,4-dihydro-1(2H)-pyrimnidinyl]methyl}cyclopropyl)oxy]methylphosphonic acid] | > 1000 µM | > 50 µM | – |
| Nc1nc(N2CCOCC2)c2ncn(CC3(OCP(=O)(O)O)CC3)c2n1 [Compound 37, [(1-{[2-amino-6-(4-morpholinyl)-9H-purin-9-yl]methyl}cyclopropyl)oxy]methyl phosphonic acid] | > 1000 µM | > 5 µM | – |
| CN1CCN(c2nc(N)nc3c2ncn3CC2(OCP(=O)(O)O)CC2)CC1 [Compound 41, [(1-{[2-amino-6-(4-methyl-1-piperazinyl)-9H-purin-9-yl]methyl}cyclopropyl)oxy]methylphosphonic Acid] | > 1000 µM | > 1 µM | – |
| Nc1nc(O)c2ncn(CC3(OCP(=O)(OCC(F)(F)F)OCC(F)(F)F)CC3)c2n1 [Compound 45, bis(2,2,2-trifluoroethyl)({1-[(2-amino-6-hydroxy-9H-purin-9-yl)methyl]cyclopropyl}oxy)methylphosphonate] | > 1000 µM | > 0.5 µM | – |
| Nc1nc(Cl)c2ncn(CC3(OCP(=O)(OCC(F)(F)F)OCC(F)(F)F)CC3)c2n1 [Compound 46, bis(2,2,2-trifluoroethyl)({1-[(2-amino-6-chloro-9H-purin-9-yl)methyl]cyclopropyl}oxy)methylphosphonate] | > 1000 µM | > 1 µM | – |
| Cc1ccc(Sc2nc(N)nc3c2ncn3CC2(OCP(=O)(OCC(F)(F)F)OCC(F)(F)F)CC2)cc1 [Compound 62, bis(2,2,2-trifluoroethyl){[1-({2-amino-6-[(4-methylphenyl)sulfanyl]-9H-purin-9-yl}methyl)cyclopropyl]oxy}methylphosphonate] | > 1000 µM | > 0.5 µM | – |
| Cc1ccc(Sc2nc(N)nc3c2ncn3CC2(OCP(=O)(O)O)CC2)cc1 [Compound 66, {[1-({2-amino-6-[(4-methylphenyl)sulfanyl]-9H-purin-9-yl}methyl)cyclopropyl]oxy}methylphosphonic acid] | > 1000 µM | > 0.1 µM | Result: number of mice showing pharmacological effect/number of total mice (HBV; [3]): 4/4 |
| CC(C)(C)OC(=O)OCOP(=O)(COC1(Cn2cnc3cnc(N)nc32)CC1)OCOC(=O)OC(C)(C)C [Compound 69, bis{[(t-butoxycarbonyl)oxy]methyl}({1-[(2-amino-9H-purin-9-yl)methyl]cyclopropyl}oxy)methylphosphonate] | > 1000 µM | > 1 µM | – |
| CC1CC1(Cn1cnc2c(O)nc(N)nc21)OCP(=O)(O)O (stereo not drawn) [Compound 97, ({1-[(2-amino-6-hydroxy-9H-purin-9-yl)methyl]-2-methylcyclopropyl}oxy)methylphosphonic acid] | > 1000 µM | > 0.05 µM | Result: number of mice showing pharmacological effect/number of total mice (HBV; [3]): 4/4 |
| CC1CC1(Cn1cnc2cnc(N)nc21)OCP(=O)(O)O (stereo not drawn) [Compound 98, ({1-[(2-amino-9H-purin-9-yl)methyl]-2-methylcyclopropyl}oxy)methylphosphonic acid] | > 1000 µM | > 1 µM | Result: number of mice showing pharmacological effect/number of total mice (HBV; [3]): 4/4 |
| Nc1ncnc2c1ncn2CCOCP(=O)(O)O [PMEA, reference compound] | – | – | CC50 (HepG2.2.15): > 500 µM; EC50 (Hepatitis B Virus (HBV); HepG2.2.15 culture medium, 10 days after treatment with drug, PCR of HBV DNA): 5 µM |
